In ChEMBL document CHEMBL3784940 (Bioorg Med Chem Lett, 2016):
The source made the active and inactive calls. No cut-off for these calls is given here.

What was measured:
[1] = Cytotoxicity against mouse TM3 cells assessed as cell viability after 48 hrs by Cell Titer Glo assay; assay type: cell-based; conditions: read-out: LD50
[2] = Inhibition of Hh signaling pathway in mouse TM3 cells assessed as downregulation of Gli1 gene expression after 48 hrs by luciferase reporter gene assay; assay type: cell-based; conditions: TM3, 48 h
[3] = biological target: 3',5'-cyclic-AMP phosphodiesterase 4D (Homo sapiens, UniProt Q08499); experiment: Inhibition of PDE4D (unknown origin) preincubated for 5 mins followed by cAMP addition measured after 15 mins by PDE-Glo phosphodiesterase assay
[4] = Inhibition of Hh signaling pathway in Sufu deficient MEF cells assessed as downregulation of Ptch1 mRNA expression at 10 uM after 24 hrs by qRT-PCR analysis; assay type: cell-based; conditions: Mus musculus
[5] = Inhibition of luciferase (unknown origin) expressed in BMP-responsive element stable reporter cells; assay type: cell-based
[6] = Inhibition of Hh signaling pathway in Sufu deficient MEF cells assessed as downregulation of Gli1 mRNA expression at 10 uM after 24 hrs by qRT-PCR analysis; assay type: cell-based; conditions: Mus musculus
[7] = biological target: Protein smoothened (Homo sapiens) (UniProt Q99835); experiment: Displacement of BODIPY-cyc from SMO receptor (unknown origin) transfected in HEK293T cells at 10 uM after 16 hrs by laser-scanning confocal microscopic analysis; assay type: cell-based; conditions: HEK-293T
[8] = Inhibition of Hh signaling pathway in Shh-LIGHT2 incorporated mouse NIH 3T3 cells assessed as downregulation of Gli1 gene expression by luciferase reporter gene assay; assay type: cell-based; conditions: NIH3T3
[9] = Inhibition of Hh signaling pathway in Sufu deficient MEF cells assessed as downregulation of Ptch1 mRNA expression at 0.1 uM after 24 hrs by qRT-PCR analysis; assay type: cell-based; conditions: Mus musculus
[10] = Inhibition of Hh signaling pathway in Sufu deficient MEF cells assessed as downregulation of Gli1 mRNA expression at 0.1 uM after 24 hrs by qRT-PCR analysis; assay type: cell-based; conditions: Mus musculus
[11] = biological target: Protein smoothened (Homo sapiens) (UniProt Q99835); experiment: Displacement of BODIPY-cyc from SMO receptor (unknown origin) transfected in HEK293T cells at 1 uM after 16 hrs by laser-scanning confocal microscopic analysis; assay type: cell-based; conditions: HEK-293T
[12] = biological target: Protein smoothened (Homo sapiens) (UniProt Q99835); experiment: Displacement of BODIPY-cyc from SMO receptor (unknown origin) transfected in HEK293T cells at 200 nM after 16 hrs by laser-scanning confocal microscopic analysis; assay type: cell-based; conditions: HEK-293T

Sequence of 3',5'-cyclic-AMP phosphodiesterase 4D (Q08499 whole entry): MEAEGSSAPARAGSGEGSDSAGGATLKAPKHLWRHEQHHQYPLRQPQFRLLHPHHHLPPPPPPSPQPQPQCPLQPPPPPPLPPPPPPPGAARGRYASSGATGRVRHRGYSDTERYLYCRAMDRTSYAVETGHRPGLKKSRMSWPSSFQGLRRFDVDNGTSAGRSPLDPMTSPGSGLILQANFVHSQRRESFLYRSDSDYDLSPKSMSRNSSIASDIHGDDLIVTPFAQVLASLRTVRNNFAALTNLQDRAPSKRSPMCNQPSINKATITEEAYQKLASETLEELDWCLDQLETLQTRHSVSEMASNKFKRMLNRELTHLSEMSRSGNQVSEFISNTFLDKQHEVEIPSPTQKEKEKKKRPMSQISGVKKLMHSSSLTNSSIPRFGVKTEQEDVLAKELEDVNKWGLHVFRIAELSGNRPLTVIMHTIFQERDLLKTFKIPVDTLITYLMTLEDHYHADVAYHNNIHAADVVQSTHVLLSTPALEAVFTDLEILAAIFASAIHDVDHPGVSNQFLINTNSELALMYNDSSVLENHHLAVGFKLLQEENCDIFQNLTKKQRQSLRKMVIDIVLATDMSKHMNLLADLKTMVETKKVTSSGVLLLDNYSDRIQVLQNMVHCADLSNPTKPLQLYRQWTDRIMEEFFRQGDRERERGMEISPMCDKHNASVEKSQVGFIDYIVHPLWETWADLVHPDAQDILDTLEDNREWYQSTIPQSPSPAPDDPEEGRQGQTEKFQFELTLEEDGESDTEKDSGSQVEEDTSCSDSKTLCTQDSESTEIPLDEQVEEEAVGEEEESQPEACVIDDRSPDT
Sequence of Protein smoothened (Homo sapiens) (Q99835 whole entry): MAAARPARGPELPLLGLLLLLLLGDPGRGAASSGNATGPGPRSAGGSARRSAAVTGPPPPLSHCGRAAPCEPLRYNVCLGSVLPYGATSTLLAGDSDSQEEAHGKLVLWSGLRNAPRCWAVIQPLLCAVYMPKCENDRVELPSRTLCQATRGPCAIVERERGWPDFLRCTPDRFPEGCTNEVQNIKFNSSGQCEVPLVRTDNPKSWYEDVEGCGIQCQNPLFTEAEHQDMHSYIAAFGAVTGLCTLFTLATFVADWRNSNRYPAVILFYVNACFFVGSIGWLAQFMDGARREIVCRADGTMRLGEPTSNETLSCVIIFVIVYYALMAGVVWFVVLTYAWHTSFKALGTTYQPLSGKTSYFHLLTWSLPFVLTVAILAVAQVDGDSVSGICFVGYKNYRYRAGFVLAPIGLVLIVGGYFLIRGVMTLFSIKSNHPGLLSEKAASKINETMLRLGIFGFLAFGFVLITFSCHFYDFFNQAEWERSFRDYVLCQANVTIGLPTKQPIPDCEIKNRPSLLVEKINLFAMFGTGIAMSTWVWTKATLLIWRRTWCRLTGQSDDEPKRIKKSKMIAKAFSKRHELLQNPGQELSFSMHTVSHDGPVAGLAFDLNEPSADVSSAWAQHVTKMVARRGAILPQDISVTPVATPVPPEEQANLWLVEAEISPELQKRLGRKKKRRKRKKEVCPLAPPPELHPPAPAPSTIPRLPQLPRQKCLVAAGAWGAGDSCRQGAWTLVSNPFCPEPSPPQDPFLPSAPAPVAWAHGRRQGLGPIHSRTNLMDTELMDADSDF

| Compound | CC50 at 48 h [1] | EC50 ([2]; read-out: EC50) | inhibition [4] | inhibition [6] | also measured |
| --- | --- | --- | --- | --- | --- |
| O=C(CSc1nc2sc3c(c2c(=O)n1CC1CC1)CCCC3)c1cccs1 | > 50 µM | 2.07 µM | – | – | – |
| C=C(C)Cn1c(SCC(=O)c2cccnc2)nc2sc3c(c2c1=O)CCCC3 | 35.4 µM | 11.1 µM | – | – | – |
| C=C(C)Cn1c(SCC(=O)N2CCOCC2)nc2sc3c(c2c1=O)CCCC3 | > 50 µM | > 20 µM | – | – | – |
| C=C(C)Cn1c(SCC(=O)N2CCCCC2)nc2sc3c(c2c1=O)CCCC3 | 24.6 µM | 10.7 µM | – | – | – |
| C=C(C)Cn1c(SCC(=O)c2cccs2)nc2sc3c(c2c1=O)CCCC3 | > 50 µM | 1.34 µM | 32.2% | 46.5% | EC50 ([2]; read-out: pEC50 (converted)): < 1 µM; IC50 [3]: 0.38 µM; inhibition [5]: inactive; inhibition [7]: inactive |
| C=C(C)Cn1c(SCC(=O)c2cccs2)nc2ccccc2c1=O | > 50 µM | > 20 µM | – | – | – |
| CC(O)(CSc1nc2sccc2c(=O)n1C1CC1)c1ccccc1 (configuration not stated) | > 50 µM | 0.948 µM | – | – | – |
| O=C(COc1nc2sccc2c(=O)n1C1CC1)c1ccccc1 | > 50 µM | > 20 µM | – | – | – |
| C=C(C)Cn1c(SCC(=O)c2ccccc2)nc2sc3c(c2c1=O)CCCC3 | > 50 µM | 5.7 µM | 60.4% | 64.8% | IC50 [3]: 0.965 µM |
| C=C(C)Cn1c(SCC(=O)c2ccncc2)nc2sc3c(c2c1=O)CCCC3 | > 50 µM | 19.8 µM | – | – | – |
| O=C(CSc1nc2sc3c(c2c(=O)n1-c1ccccc1)CCCC3)c1cccs1 | > 50 µM | 8.25 µM | – | – | – |
| O=C(CSc1nc2sc3c(c2c(=O)n1CC1CCC1)CCCC3)c1cccs1 | 45.6 µM | 1.99 µM | – | – | – |
| CS(=O)(=O)c1ccc(C(=O)Nc2ccc(Cl)c(-c3ccccn3)c2)c(Cl)c1 [VISMODEGIB] | > 50 µM | 0.013 µM | – | – | – |
| C=C(C)Cn1c(SCC(=O)c2cccs2)nc2sc3c(c2c1=O)CCSC3 | > 50 µM | 4.57 µM | – | – | – |
| O=C(CSc1nc2ccccc2c(=O)n1C1CC1)c1cccs1 | > 50 µM | 0.685 µM | 9.9% | 10.3% | inhibition [5]: inactive; inhibition [7]: inactive |
| CCCn1c(SCC(=O)c2cccs2)nc2sc3c(c2c1=O)CCCC3 | > 50 µM | 1.3 µM | 39.9% | 44.9% | IC50 [3]: 0.486 µM |
| CN(C)c1ccccc1CN1CCCN(Cc2ccccc2N(C)C)C1c1ccncc1 | > 50 µM | 9.27 µM | 52.8% | 43.8% | EC50 [8]: 5 µM |

| Compound | CC50 at 48 h [1] | EC50 ([2]; read-out: EC50) | inhibition [4] | inhibition [6] | also measured |
| --- | --- | --- | --- | --- | --- |
| C=C(C)Cn1c(SCC(=O)c2cccs2)nc2sc3ccccc3c2c1=O | > 50 µM | > 20 µM | – | – | – |
| O=C(CSc1nc2sccc2c(=O)n1C1CC1)c1cccs1 | > 50 µM | 0.933 µM | -3.3% | 5.5% | inhibition [5]: inactive; inhibition [7]: inactive |
| C=C(C)Cn1c(SCC(=O)c2ccccn2)nc2sc3c(c2c1=O)CCCC3 | > 50 µM | > 20 µM | – | – | – |
| Cc1c(C(=O)Nc2ccc(N3C[C@@H](C)O[C@@H](C)C3)nc2)cccc1-c1ccc(OC(F)(F)F)cc1 [SONIDEGIB] | > 50 µM | 0.0012 µM | – | – | inhibition [9]: -0.2%; inhibition [10]: 5.8% |
| C=C(C)Cn1c(SCC(=O)c2cccs2)nc2sc3c(c2c1=O)CCNC3 | 20.1 µM | 6.4 µM | – | – | – |
| O=C(CSc1nc2sccc2c(=O)n1C1CC1)c1ccccc1 | > 50 µM | 0.082 µM | -0.3% | 13.6% | inhibition [5]: inactive; inhibition [11]: inactive |
| CC1=C2C[C@H]3[C@@H](CC=C4CC(=O)CC[C@@]43C)[C@@H]2CCC12OC1C[C@H](C)CN(CCNC(=O)CCCCCNC(=O)CCc3ccccc3)C1[C@H]2C (single isomer, unassigned) | – | – | – | – | inhibition [12]: Active |
| O=c1c2ccsc2nc(SCC(O)c2ccccc2)n1C1CC1 (configuration not stated) | > 50 µM | – | -4.8% | 3.2% | IC50 [3]: 6.07 µM; inhibition [5]: inactive; inhibition [7]: inactive |
| O=C(CSc1nc2ccccc2c(=O)n1C1CC1)c1ccccc1 | > 50 µM | 1.16 µM | – | – | – |
| C=C(C)Cn1c(SCC(=O)c2cccs2)nc2sc3c(c2c1=O)CCOC3 | > 50 µM | > 20 µM | – | – | – |
| O=C(CSc1nc2sc3c(c2c(=O)n1C1CC1)CCCC3)c1cccs1 | > 50 µM | 1.89 µM | 26.5% | 26.8% | – |
| C=C(C)Cn1c(SCC(=O)N2CCCCC2C)nc2sc3c(c2c1=O)CCCC3 (configuration not stated) | 16.7 µM | 2.32 µM | 49.2% | 35% | – |
| C=C(C)Cn1c(SCC(=O)c2cccs2)nc2sccc2c1=O | > 50 µM | 0.931 µM | – | – | – |
| C=CCn1c(SCC(=O)c2cccs2)nc2sc3c(c2c1=O)CCCC3 | > 50 µM | 2.36 µM | – | – | – |
| C=C(C)Cn1c(SCC(=O)c2nccs2)nc2sc3c(c2c1=O)CCCC3 | > 50 µM | > 20 µM | – | – | – |
| O=C(CNc1nc2sccc2c(=O)n1C1CC1)c1ccccc1 | > 50 µM | > 20 µM | – | – | – |
